Results from PubChem BioAssay (NCI).
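Abbreviation: GI50, concentration required for 50% inhibition of growth. TGI is the concentration that stops growth completely.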

What was measured:
Assay in all cases: growth of human tumour cells (NCI), 384-well format
786-0 renal = system: 786-0 renal
MCF7 breast = system: MCF7 breast
SK-OV-3 ovarian = system: SK-OV-3 ovarian
OVCAR-4 ovarian = system: OVCAR-4 ovarian
HT29 colon = system: HT29 colon
IGROV1 ovarian = system: IGROV1 ovarian
PC-3 prostate = system: PC-3 prostate
HL-60(TB) leukemia = system: HL-60(TB) leukemia
HS 578T breast = system: HS 578T breast
HCT-116 colon = system: HCT-116 colon
DU-145 prostate = system: DU-145 prostate
SK-MEL-28 melanoma = system: SK-MEL-28 melanoma
SNB-19 CNS = system: SNB-19 CNS
UACC-257 melanoma = system: UACC-257 melanoma
T-47D breast = system: T-47D breast
NCI-H23 lung = system: NCI-H23 lung
U251 glioblastoma = system: U251 glioblastoma
NCI-H322M lung = system: NCI-H322M lung
TK-10 renal = system: TK-10 renal
COLO 205 colon = system: COLO 205 colon
NCI-H522 lung = system: NCI-H522 lung
RXF 393 renal = system: RXF 393 renal
SR leukemia = system: SR leukemia
HCC-2998 colon = system: HCC-2998 colon
NCI-H226 lung = system: NCI-H226 lung
MOLT-4 leukemia = system: MOLT-4 leukemia
CCRF-CEM leukemia = system: CCRF-CEM leukemia
RPMI-8226 leukemia = system: RPMI-8226 leukemia
OVCAR-8 ovarian = system: OVCAR-8 ovarian
SF-295 CNS = system: SF-295 CNS
MDA-MB-231 breast = system: MDA-MB-231 breast
SF-268 CNS = system: SF-268 CNS
SN12C renal = system: SN12C renal
MALME-3M melanoma = system: MALME-3M melanoma
MDA-MB-435 melanoma = system: MDA-MB-435 melanoma
HOP-62 NSCLC = system: HOP-62 NSCLC
UACC-62 melanoma = system: UACC-62 melanoma
SW-620 colon = system: SW-620 colon
NCI-H460 NSCLC = system: NCI-H460 NSCLC
SNB-75 CNS = system: SNB-75 CNS
A549 NSCLC = system: A549 NSCLC
OVCAR-3 ovarian = system: OVCAR-3 ovarian
BT-549 breast = system: BT-549 breast
A498 renal = system: A498 renal
M14 melanoma = system: M14 melanoma
KM12 colon = system: KM12 colon
SF-539 CNS = system: SF-539 CNS
MDA-MB-468 breast = system: MDA-MB-468 breast
HOP-92 NSCLC = system: HOP-92 NSCLC
UO-31 renal = system: UO-31 renal

## CNC(=O)c1nn(C)c2c1C(C)(C)Cc1cnc(Nc3cccc(N4CCN(C)CC4)c3)nc1-2
786-0 renal
  GI50: 309 nM
  TGI: 10900 nM
MCF7 breast
  GI50: 345 nM
  TGI: 11400 nM
SK-OV-3 ovarian
  GI50: 42.2 nM
  TGI: 1290 nM
OVCAR-4 ovarian
  GI50: 2260 nM
  TGI: 10600 nM
HT29 colon
  GI50: 886 nM
  TGI: 3760 nM
IGROV1 ovarian
  GI50: 62.4 nM
  TGI: 616 nM
PC-3 prostate
  GI50: 185 nM
  TGI: 11200 nM
HL-60(TB) leukemia
  GI50: 84.2 nM
  TGI: 1630 nM
HS 578T breast
  GI50: 148 nM
  TGI: 1310 nM
HCT-116 colon
  GI50: 123 nM
  TGI: 11700 nM
DU-145 prostate
  GI50: 522 nM
  TGI: 10500 nM
SK-MEL-28 melanoma
  GI50: 1080 nM
  TGI: 4010 nM
SNB-19 CNS
  GI50: 414 nM
  TGI: 24100 nM
UACC-257 melanoma
  GI50: 1160 nM
  TGI: 4300 nM
T-47D breast
  GI50: 1610 nM
  TGI: 13500 nM
NCI-H23 lung
  GI50: 157 nM
  TGI: 895 nM
U251 glioblastoma
  GI50: 437 nM
  TGI: 12700 nM
NCI-H322M lung
  GI50: 523 nM
  TGI: 11200 nM
TK-10 renal
  GI50: 336 nM
  TGI: 10400 nM
COLO 205 colon
  GI50: 416 nM
  TGI: 9350 nM
NCI-H522 lung
  GI50: 153 nM
  TGI: 436 nM
RXF 393 renal
  GI50: 122 nM
  TGI: 2140 nM
SR leukemia
  TGI: 57.3 nM
HCC-2998 colon
  GI50: 433 nM
  TGI: 6560 nM
NCI-H226 lung
  GI50: 251 nM
  TGI: 4600 nM
MOLT-4 leukemia
  GI50: 130 nM
  TGI: 317 nM
CCRF-CEM leukemia
  GI50: 252 nM
  TGI: 1210 nM
RPMI-8226 leukemia
  GI50: 95.4 nM
  TGI: 253 nM
OVCAR-8 ovarian
  GI50: 1450 nM
  TGI: 17100 nM
SF-295 CNS
  GI50: 375 nM
  TGI: 3900 nM
MDA-MB-231 breast
  GI50: 251 nM
  TGI: 43600 nM
SF-268 CNS
  GI50: 536 nM
  TGI: 2270 nM
SN12C renal
  GI50: 198 nM
  TGI: 1740 nM
MALME-3M melanoma
  GI50: 253 nM
  TGI: 2030 nM
MDA-MB-435 melanoma
  GI50: 612 nM
  TGI: 11300 nM
HOP-62 NSCLC
  GI50: 357 nM
  TGI: 7180 nM
UACC-62 melanoma
  GI50: 206 nM
  TGI: 2260 nM
SW-620 colon
  GI50: 391 nM
  TGI: 12600 nM
NCI-H460 NSCLC
  GI50: 89.3 nM
  TGI: 5350 nM
SNB-75 CNS
  GI50: 216 nM
  TGI: 2170 nM
A549 NSCLC
  GI50: 278 nM
  TGI: 12800 nM
OVCAR-3 ovarian
  GI50: 167 nM
  TGI: 741 nM
BT-549 breast
  GI50: 276 nM
  TGI: 2040 nM
A498 renal
  GI50: 46.6 nM
  TGI: 12300 nM
M14 melanoma
  GI50: 124 nM
  TGI: 3590 nM
KM12 colon
  GI50: 33.7 nM
  TGI: 10600 nM
SF-539 CNS
  GI50: 405 nM
  TGI: 3420 nM
MDA-MB-468 breast
  GI50: 463 nM
  TGI: 1830 nM
HOP-92 NSCLC
  GI50: 199 nM
  TGI: > 100000 nM
UO-31 renal
  GI50: 235 nM
  TGI: 2190 nM
